Solubility data for 1 compound are collected here from US20220202322A1, “DRUG RELEASE COMPOSITIONS AND METHODS FOR DELIVERY” (ABBOTT DIABETES CARE INC., priority 2020, published 2022).

Molecules are shown by their SMILES. Values after ≈ are worked out from the molar mass of the structure shown.

A short description of this data set: physchem. The following applies: water. Type of data set: physicochemical. An excerpt: Conjugating dexamethasone to a water-soluble polymer makes dexamethasone water soluble, which allows for more consistent dispensing. […] As further shown in FIG. 22D, dispensing of the solution of 18 without a crosslinking agent (left panel) and with a crosslinking agent (right panel) was consistent and performed without difficulty.

What is called solubility is the dissolved amount per volume that the medium holds. Read a high solubility as much dissolved substance. In the case of `C[C@@H]1C[C@H]2[C@@H]3CCC4=CC(=O)C=C[C@]4(C)[C@@]3(F)[C@@H](O)C[C@]2(C)[C@@]1(O)C(=O)CO` [dexamethasone], the solubility came out at 50 µg/mL (≈ 127 µM).
